Data published in ChEMBL document CHEMBL1201862, “PubChem BioAssay data set” (2004).
Activity calls are given as the source filed them.

What was measured:
HeLa = test: HeLa cell cytotoxicity, dose response, cytotoxicity control for MITF activator project, CellTiter-Glo luminescence, cherry-pick samples (AID 540259); type: functional, cell-based; conditions: Homo sapiens
Cytochrome P450 2D6 = Cytochrome P450 2D6 (Homo sapiens, UniProt P10635);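 note: CYP2D6 member of a cytochrome P450 panel assay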
Cytochrome P450 2D6, sequence (P10635 whole entry): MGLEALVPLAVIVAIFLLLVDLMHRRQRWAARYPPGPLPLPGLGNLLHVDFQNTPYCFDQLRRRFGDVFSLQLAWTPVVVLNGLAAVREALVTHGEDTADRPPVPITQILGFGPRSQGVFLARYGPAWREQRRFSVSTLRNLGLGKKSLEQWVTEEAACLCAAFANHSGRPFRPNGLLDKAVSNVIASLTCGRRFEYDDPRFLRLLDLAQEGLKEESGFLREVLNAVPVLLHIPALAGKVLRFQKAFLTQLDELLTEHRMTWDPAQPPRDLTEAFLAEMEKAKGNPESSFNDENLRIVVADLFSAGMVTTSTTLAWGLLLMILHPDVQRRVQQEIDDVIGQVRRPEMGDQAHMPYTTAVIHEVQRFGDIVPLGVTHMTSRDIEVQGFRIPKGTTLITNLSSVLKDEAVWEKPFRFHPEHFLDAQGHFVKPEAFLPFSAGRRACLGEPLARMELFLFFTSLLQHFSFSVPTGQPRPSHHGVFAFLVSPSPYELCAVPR

[1] = biological target: Glucose-6-phosphate 1-dehydrogenase (Homo sapiens, UniProt P11413); test: human G6PD enzyme inhibitors, dose response, selectivity assay for P. falciparum G6PD inhibitor project, biochemical, fluorescence (AID 504792); type: functional
Glucose-6-phosphate 1-dehydrogenase, sequence (P11413 whole entry): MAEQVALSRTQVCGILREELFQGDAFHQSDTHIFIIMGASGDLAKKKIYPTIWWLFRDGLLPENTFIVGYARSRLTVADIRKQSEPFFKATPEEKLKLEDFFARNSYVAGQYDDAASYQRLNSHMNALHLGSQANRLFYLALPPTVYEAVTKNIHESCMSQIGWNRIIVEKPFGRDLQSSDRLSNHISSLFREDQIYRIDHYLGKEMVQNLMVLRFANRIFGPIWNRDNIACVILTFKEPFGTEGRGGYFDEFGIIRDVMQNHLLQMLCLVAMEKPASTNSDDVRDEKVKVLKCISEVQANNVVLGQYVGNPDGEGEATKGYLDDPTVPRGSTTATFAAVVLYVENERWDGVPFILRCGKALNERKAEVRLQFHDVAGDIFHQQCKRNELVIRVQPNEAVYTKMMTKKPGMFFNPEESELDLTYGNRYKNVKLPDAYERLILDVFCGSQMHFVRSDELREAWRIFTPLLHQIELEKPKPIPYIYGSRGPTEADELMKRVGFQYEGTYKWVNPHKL

Bcl-2-related protein A1 = biological target: T1, Bcl-2-related protein A1 (Mus musculus, UniProt Q07440); type: functional;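 note: confirmatory dose–response counterscreen on Bfl-1, used to check hits from a UBC13 polyubiquitin inhibitor campaign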
T1 sequence (Q07440 whole entry): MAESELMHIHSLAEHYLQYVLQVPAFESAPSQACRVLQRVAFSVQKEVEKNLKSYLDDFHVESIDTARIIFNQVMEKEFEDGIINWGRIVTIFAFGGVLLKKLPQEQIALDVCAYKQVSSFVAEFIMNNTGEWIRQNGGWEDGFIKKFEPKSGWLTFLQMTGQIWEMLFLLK

[2] = biological target: T2, Ubiquitin-conjugating enzyme E2 N (Homo sapiens, UniProt P61088); type: functional
T2 sequence (P61088 whole entry): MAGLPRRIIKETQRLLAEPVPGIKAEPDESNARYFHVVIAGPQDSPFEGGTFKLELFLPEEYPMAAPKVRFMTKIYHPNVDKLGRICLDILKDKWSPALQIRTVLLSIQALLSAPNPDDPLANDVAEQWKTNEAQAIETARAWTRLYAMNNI

[3] = biological target: T2, Ubiquitin-conjugating enzyme E2 N; type: functional; remark: listed apart in the source
[4] = biological target: T3, Microphthalmia-associated transcription factor (Homo sapiens, UniProt O75030); test: TRPM1 promoter luciferase signal decrease, dose response, MITF inhibitor project, cell-based, SK-MEL-5, cherry-picked, set 3 (AID 493073); type: functional
T3 sequence (O75030 whole entry): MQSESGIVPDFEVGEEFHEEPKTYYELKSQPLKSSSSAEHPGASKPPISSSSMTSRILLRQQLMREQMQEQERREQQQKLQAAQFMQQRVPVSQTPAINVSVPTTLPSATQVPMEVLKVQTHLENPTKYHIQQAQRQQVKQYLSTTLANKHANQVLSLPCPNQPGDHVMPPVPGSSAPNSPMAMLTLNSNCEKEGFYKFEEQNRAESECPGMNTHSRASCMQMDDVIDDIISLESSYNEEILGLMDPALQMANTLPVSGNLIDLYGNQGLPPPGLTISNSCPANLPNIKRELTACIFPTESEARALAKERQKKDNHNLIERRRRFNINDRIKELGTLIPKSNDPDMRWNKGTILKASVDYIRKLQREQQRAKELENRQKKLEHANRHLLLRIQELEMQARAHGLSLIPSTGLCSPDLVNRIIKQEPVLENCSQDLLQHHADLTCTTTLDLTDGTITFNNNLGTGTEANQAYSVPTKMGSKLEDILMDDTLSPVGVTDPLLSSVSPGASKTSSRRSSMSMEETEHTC

[5] = system: Streptococcus sp. 'group A'; test: growth inhibition of control SK(-) GAS strain, dose response, counter-screen for streptokinase expression inhibitor project, luminescence, kanamycin, BacTiterGlo, confirmation (AID 1900); type: functional, organism-based
Streptokinase A = biological target: T4, Streptokinase A (Streptococcus pyogenes serotype M1, UniProt P10520); test: S. pyogenes streptokinase expression inhibitors, potency, dose response, plasminogen activation absorbance, OD405 (AID 1914); type: functional, Streptococcus pyogenes M1 GAS;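 note: secreted streptokinase activity via plasminogen activation per viability signal from cell pellet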
T4 sequence (P10520 whole entry): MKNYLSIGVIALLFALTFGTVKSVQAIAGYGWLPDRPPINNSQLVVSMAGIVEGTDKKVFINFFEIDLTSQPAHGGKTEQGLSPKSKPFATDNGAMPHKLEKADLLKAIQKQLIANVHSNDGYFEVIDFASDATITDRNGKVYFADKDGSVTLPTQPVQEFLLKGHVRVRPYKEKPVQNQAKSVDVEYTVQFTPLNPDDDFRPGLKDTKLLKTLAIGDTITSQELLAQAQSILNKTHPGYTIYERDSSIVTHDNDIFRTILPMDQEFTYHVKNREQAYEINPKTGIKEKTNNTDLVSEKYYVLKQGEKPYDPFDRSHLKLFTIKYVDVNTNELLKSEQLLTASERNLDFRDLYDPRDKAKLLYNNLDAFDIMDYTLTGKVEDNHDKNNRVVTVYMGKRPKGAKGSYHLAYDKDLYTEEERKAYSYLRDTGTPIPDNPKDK

[6] = biological target: Induced myeloid leukemia cell differentiation protein Mcl-1 (Homo sapiens, UniProt Q07820); type: functional
Induced myeloid leukemia cell differentiation protein Mcl-1, sequence (Q07820 whole entry): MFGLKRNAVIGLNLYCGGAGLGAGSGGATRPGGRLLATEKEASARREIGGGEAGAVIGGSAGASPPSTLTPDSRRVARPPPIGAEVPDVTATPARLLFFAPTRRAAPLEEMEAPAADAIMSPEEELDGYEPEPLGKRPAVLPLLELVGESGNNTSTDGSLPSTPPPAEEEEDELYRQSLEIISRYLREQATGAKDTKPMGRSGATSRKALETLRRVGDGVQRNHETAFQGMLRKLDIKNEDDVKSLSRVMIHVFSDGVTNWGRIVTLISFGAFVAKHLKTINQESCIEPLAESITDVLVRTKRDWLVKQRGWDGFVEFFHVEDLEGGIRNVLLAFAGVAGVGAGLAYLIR

Streptococcus = test: Group A Streptococcus viability loss, dose response, counter-screen for streptokinase expression inhibitor project, luminescence, BacTiterGlo (AID 1915); type: functional, organism-based;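 note: potency for reduction of bacterial viability or growth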
Vero [7] = test: cells; type: functional, cell-based; conditions: Chlorocebus sabaeus
Vero [8] = test: cells; type: functional; conditions: Chlorocebus sabaeus
HEK293 [9] = test: NOD1 signaling inhibitors, primary screen, cell-based, luminescence, uHTS (AID 1578); type: functional; conditions: Homo sapiens
HEK293 [10] = test: cells; type: functional, cell-based; conditions: Homo sapiens
HEK293 [11] = test: cells; type: functional, cell-based; conditions: Homo sapiens; remark: listed apart in the source
HEK293 [12] = test: NOD2 signaling inhibitors in MDP-stimulated cells, cell-based, uHTS, luminescence (AID 2001); type: functional; conditions: Homo sapiens
[13] = Shn3 3'UTR reporter inhibitors, dose response, cell-based, Clone20 osteoblasts, firefly luciferase, cherry-picked (AID 624132); type: functional;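 note: firefly luciferase luminescence from reporter carrying the Shn3 3'UTR in osteoblasts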
[14] = HepG2 cell cytotoxicity, dose response, cytotoxicity control for Shn3 inhibitor project, CellTiter-Glo, cherry-picked (AID 624134); type: functional, cell-based
[15] = control 3'UTR Renilla luciferase suppression, dose response, counter-screen for Shn3 inhibitor project, cell-based, Clone20-Shn3RL, cherry-picked (AID 624133); type: functional
Genome polyprotein = Genome polyprotein (dengue virus type 2, UniProt P29990); test: Dengue-2 NS5 methyltransferase inhibitors, primary screen, biochemical, confirmation dose response (AID 588689); type: functional
Genome polyprotein, sequence (P29990 2492-3391 limits assumed): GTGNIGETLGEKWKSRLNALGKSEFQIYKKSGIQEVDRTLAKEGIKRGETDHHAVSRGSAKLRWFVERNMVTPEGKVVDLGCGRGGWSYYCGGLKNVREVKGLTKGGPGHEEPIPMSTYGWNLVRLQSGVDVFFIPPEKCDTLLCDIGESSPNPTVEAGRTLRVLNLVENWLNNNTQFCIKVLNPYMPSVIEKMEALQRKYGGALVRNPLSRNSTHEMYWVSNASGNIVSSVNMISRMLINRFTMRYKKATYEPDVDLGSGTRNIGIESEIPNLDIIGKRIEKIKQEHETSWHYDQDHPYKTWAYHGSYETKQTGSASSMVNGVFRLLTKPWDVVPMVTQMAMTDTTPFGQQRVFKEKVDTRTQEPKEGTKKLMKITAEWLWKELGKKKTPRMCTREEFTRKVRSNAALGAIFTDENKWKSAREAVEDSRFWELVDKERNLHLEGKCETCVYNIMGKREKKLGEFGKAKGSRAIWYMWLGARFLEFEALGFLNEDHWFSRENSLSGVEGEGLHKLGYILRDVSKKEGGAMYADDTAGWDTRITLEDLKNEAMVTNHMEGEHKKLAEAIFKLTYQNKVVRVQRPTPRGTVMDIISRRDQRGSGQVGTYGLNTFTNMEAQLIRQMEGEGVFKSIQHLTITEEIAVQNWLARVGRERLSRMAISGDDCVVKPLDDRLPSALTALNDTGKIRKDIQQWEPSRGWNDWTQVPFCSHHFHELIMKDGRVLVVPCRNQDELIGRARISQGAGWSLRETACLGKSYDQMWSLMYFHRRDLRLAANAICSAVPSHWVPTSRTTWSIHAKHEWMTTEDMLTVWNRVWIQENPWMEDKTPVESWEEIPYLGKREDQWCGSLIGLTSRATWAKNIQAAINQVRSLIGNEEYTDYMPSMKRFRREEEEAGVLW

[16] = biological target: DNA (cytosine-5)-methyltransferase 1 (Homo sapiens, UniProt P26358); test: DNMT1 methyltransferase inhibitors, confirmation, biochemical, fluorescent molecular beacon (AID 602386); type: functional
DNA (cytosine-5)-methyltransferase 1, sequence (P26358 whole entry): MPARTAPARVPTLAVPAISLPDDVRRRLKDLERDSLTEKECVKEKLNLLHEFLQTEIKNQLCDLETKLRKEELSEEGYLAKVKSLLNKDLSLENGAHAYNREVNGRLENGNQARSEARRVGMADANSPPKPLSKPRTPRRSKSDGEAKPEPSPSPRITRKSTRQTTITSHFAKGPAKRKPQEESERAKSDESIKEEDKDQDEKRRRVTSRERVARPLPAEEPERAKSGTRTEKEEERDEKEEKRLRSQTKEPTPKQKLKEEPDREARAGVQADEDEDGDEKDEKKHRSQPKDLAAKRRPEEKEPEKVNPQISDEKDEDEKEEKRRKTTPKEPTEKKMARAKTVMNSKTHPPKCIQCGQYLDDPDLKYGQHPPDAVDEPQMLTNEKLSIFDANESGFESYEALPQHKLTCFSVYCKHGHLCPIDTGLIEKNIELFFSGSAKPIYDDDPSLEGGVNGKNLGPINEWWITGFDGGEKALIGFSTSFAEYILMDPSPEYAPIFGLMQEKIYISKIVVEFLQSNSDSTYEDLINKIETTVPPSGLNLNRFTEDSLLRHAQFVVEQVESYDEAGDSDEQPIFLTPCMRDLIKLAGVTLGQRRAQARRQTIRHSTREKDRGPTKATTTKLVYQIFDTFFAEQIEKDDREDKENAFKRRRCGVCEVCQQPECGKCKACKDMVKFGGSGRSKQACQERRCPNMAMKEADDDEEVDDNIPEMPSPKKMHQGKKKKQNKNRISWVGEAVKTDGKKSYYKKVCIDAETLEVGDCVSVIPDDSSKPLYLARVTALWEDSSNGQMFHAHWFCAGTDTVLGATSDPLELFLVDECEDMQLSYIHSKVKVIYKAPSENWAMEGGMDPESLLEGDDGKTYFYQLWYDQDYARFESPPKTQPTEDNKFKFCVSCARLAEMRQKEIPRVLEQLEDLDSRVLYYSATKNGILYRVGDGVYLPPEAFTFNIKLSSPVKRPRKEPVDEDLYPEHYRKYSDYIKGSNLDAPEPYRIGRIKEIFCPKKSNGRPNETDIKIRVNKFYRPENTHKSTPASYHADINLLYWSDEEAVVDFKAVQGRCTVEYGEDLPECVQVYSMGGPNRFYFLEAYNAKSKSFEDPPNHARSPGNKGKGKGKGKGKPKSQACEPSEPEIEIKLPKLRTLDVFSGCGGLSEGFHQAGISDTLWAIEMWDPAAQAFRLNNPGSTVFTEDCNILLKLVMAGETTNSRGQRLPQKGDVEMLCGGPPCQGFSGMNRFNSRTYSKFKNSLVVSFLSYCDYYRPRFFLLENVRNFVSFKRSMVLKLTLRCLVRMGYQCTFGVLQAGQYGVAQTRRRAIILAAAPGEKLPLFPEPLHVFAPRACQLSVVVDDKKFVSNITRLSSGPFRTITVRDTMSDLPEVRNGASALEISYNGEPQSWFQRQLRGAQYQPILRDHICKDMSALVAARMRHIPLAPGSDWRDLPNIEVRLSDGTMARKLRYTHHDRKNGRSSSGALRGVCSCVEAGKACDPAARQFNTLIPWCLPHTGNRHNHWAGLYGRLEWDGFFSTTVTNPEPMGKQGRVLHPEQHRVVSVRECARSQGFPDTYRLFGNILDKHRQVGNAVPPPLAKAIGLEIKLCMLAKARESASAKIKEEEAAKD

[17] = HeLa cell cytotoxicity, dose response, cytotoxicity control for MgcRacGAP inhibitor project (AID 624300); type: functional
[18] = biological target: T5, Rac GTPase-activating protein 1 (Homo sapiens, UniProt Q9H0H5); test: MgcRacGAP GTPase-activating activity inhibitors, confirmation, biochemical, ADP Hunter fluorescence, primary and confirmatory (AID 624330); type: functional
T5 sequence (Q9H0H5 whole entry): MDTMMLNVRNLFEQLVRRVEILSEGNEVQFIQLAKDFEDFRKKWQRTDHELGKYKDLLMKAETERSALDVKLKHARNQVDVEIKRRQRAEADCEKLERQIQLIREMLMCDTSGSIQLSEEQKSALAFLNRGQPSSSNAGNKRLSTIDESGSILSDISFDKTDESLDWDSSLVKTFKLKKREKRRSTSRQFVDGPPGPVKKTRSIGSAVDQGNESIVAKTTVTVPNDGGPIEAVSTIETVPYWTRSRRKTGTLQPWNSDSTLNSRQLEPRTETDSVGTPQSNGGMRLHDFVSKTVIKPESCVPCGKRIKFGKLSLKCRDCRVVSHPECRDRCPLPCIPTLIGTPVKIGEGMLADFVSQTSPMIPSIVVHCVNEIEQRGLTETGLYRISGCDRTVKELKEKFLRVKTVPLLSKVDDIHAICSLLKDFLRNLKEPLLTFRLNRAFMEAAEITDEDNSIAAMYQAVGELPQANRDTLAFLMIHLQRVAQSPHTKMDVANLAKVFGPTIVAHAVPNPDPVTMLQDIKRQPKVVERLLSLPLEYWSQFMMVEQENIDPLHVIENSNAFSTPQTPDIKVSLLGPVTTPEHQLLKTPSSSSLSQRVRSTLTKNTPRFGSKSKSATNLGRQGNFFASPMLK

[19] = biological target: T6, Histone-lysine N-methyltransferase NSD2 (Homo sapiens, UniProt O96028); type: biochemical
T6 sequence (O96028 whole entry): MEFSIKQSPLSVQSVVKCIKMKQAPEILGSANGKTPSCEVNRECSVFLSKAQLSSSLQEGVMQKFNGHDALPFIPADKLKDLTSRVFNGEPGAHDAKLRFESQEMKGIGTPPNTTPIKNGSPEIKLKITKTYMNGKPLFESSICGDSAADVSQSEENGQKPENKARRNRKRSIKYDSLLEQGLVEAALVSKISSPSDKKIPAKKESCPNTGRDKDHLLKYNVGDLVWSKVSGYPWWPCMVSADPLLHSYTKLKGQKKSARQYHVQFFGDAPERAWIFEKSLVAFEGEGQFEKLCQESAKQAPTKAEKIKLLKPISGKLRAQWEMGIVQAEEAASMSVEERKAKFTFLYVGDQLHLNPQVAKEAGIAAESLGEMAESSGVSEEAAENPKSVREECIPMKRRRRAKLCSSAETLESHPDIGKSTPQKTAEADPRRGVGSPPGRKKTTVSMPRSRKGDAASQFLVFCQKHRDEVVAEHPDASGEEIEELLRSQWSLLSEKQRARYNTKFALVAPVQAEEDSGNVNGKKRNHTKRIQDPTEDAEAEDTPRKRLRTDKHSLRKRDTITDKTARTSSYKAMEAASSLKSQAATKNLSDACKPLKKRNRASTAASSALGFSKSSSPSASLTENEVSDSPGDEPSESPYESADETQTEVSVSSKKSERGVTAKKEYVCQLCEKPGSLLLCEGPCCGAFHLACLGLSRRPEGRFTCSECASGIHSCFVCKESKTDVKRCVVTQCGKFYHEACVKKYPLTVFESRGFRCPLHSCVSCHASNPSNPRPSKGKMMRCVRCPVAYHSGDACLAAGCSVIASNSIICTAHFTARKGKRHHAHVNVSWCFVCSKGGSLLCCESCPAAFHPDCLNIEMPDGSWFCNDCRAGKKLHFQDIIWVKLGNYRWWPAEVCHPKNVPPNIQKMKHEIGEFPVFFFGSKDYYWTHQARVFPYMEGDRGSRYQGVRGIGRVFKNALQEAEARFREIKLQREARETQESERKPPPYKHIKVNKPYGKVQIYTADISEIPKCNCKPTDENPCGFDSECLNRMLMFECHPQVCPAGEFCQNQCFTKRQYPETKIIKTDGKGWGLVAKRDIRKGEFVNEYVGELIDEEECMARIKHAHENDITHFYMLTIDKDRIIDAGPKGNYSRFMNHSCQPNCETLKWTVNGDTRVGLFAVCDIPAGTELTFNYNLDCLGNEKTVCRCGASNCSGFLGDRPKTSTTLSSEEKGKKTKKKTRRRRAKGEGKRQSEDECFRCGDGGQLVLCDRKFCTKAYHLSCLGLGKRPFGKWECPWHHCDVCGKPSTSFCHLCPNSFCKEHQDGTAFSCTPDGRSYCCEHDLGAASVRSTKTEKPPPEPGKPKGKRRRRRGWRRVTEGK

Cc1nn2c(-c3ccccc3)ccnc2c1-c1ccccc1
AC50 (HeLa): 34.7 µM (active)

OCCN(CO)CO
AC50 (Cytochrome P450 2D6): inconclusive

COC(=O)C1CCCCN1C(=O)c1ccc2oc(Cc3ccccc3)nc2c1 (stereo not given)
AC50 (HeLa): 181 µM (active)

Cc1ccsc1/C=N\NC(=O)CC(=O)NCc1ccccc1
IC50 [1]: > 80 µM (inactive)

O=C(NCCN1CCN(c2ccccc2)CC1)c1ccc2c(c1)[nH]c(=S)n1c3ccccc3nc21
IC50 (Bcl-2-related protein A1): > 20 µM (inactive) | IC50 [2]: 0.829 µM (active) | IC50 [3]: > 20 µM (inactive)

N#C/C(=C(/O)CCl)c1nc2ccccc2[nH]1
AC50 [4]: 4.6 µM (active)

O=C(O)c1ccccc1N/N=C/c1cc(Br)cc(Br)c1O
EC50 [5]: 4.5 µM (active) | EC50 (Streptokinase A): 32.4 µM (active) | IC50 [6]: 8.04 µM (active) | EC50 (Streptococcus): 60.6 µM (active) | IC50 (Vero [7]): 18.9 µM (active) | CC50 (Vero [8]): > 25 µM (active) | AC50 (HeLa): 57.4 µM (active)

CCn1nc(C)c(NC(=O)/C=C/c2cnn(C)c2C)c1C
AC50 (Cytochrome P450 2D6): inconclusive

Cn1cc(S(=O)(=O)N2CCc3ccccc32)cc1C(=O)NC(C)(C)C
EC50 (HEK293 [9]): 3.38 µM (active) | IC50 (HEK293 [10]): 10.6 µM (active) | IC50 (HEK293 [11]): > 20 µM (inactive) | IC50 (HEK293 [12]): 12.3 µM (inactive) | AC50 [13]: 1.25 µM (active) | AC50 [14]: 3.56 µM (active) | AC50 [15]: 1.37 µM (active)

NS(=O)(=O)c1cc2c(cc1Cl)N=C(CCC(=O)O)N=S2(=O)O
AC50 (Cytochrome P450 2D6): inconclusive

NNC(=O)c1ccc(CN2C(=O)c3cccc4cccc2c34)cc1
IC50 (Bcl-2-related protein A1): > 20 µM (inactive) | IC50 [2]: 8.94 µM (active) | IC50 [3]: 3.55 µM (active)

Cc1ccc(C(C)C)cc1OCC(=O)Nc1nnc(C2CC2)s1
IC50 (Vero [7]): > 25 µM (active)

COc1ccc2c(c1OC)C(=O)N(c1ccc(C)cc1)C2
AC50 (HeLa): 82.3 µM (active)

COC1=C(Br)C(=O)c2nc(C)ccc2C1=O
IC50 [1]: 53.7 µM (inactive) | IC50 (Genome polyprotein): 3.77 µM (active) | IC50 [16]: 8.73 µM (active) | CC50 [17]: 100 µM (active) | IC50 [18]: 68.1 µM (active) | AC50 [19]: 1.71 µM (active)
